The target in this experiment is T1, recombinant human TCTP (Homo sapiens, UniProt P13693).
T1 construct: gene TPT1; recombinant; RED-NHS fluorescently labelled for MST
T1 sequence (P13693 1-172): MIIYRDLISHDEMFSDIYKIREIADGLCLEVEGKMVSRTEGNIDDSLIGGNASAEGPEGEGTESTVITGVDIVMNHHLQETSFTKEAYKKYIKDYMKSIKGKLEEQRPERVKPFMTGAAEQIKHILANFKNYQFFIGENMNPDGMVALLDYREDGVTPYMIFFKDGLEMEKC
The experiment can be described thus: microscale thermophoresis. It is filed as binding.

These results are taken from paper PMC11014985, “TCTP regulates genotoxic stress and tumorigenicity via intercellular vesicular signaling” (EMBO Reports, 2024).

Take `CN[C@H]1CC[C@@H](c2ccc(Cl)c(Cl)c2)c2ccccc21` [sertraline]: the Kd was 15.4 ± 1.4 µM.

In the case of `CSc1ccc2c(c1)N(CCC1CCCCN1C)c1ccccc1S2` (centres unmarked) [thioridazine], the Kd came out at 5.39 ± 2.1 µM.
